# Source: US8975263B2, “Phenylxanthene derivatives” (Daiichi Sankyo Company, Limited, priority 2013, dated 2015)
# System: C57BL/6J mice
# Test: Oral glucose tolerance test
# Format: in vivo
# Conditions: male C57BL/6J mice, fasted overnight; oral gavage 10 mg/kg; solvent 0.5% MC; glucose 3 g/kg orally 30 minutes after compound; area under the curve of blood glucose level relative to control group
# Protocol: Commercially available mice (C57BL/6J mice; male; 8 to 12 weeks old when used; distributed by Charles River Laboratories Japan, Inc.) were used.
# After acclimatization with freely feeding (FR-2, Funabashi Farm Co., Ltd.) for one week or more, the mice were fasted overnight and then used for the test. A 0.5% methylcellulose (Wako Pure Chemical Industries, Ltd.) solution (0.5% MC) containing a test compound at a concentration of 1 mg/ml and a mixed solution (PG:Tween) of propylene glycol (80 v/v %, Nacalai Tesque, Inc.) and Tween 80 (20 v/v %, Nacalai Tesque, Inc.) containing a test compound at a concentration of 2 mg/ml were prepared for administration to the mice. The prepared solution was administered by oral gavage to four or five mice in each group at a dose of 10 mg/kg as the test compound. For a control group, a 0.5% methylcellulose solution (dose: 10 ml/kg) or a mixed solution of propylene glycol and Tween 80 (dose: 5 ml/kg) was orally administered to mice. An oral glucose tolerance test was carried out by administering a glucose solution (Otsuka Glucose Solution 50%; Otsuka Pharmaceutical Factory, Inc.) orally at a dose of 3 g/kg to the mice 30 minutes after administration of the test compound.
# Blood was collected from the tail vein of each mouse immediately before administration of the test compound (T0), […] after administration of the test compound (T1), and 30 minutes (T2) and 90 minutes (T3) after oral glucose loading. The blood glucose level was measured using a blood glucose level measuring apparatus (ACCU-CHEK Aviva; Roche Diagnostics, K.K.). The blood glucose level T1 was analyzed as a value obtained 30 minutes after administration of the compound and immediately before glucose loading. According to the following formula, the area under the curve of blood glucose level was calculated, and thereafter, the blood glucose lowering rate (%) was calculated as a value relative to the control group. The area under the curve of blood glucose level=[(blood glucose level T0+blood glucose level T1)×30]÷2+[(blood glucose level T1+blood glucose level T2)×30]÷2+[(blood glucose level T2+blood glucose level T3)×60]÷2 Blood glucose lowering rate(%)=[1−(the area under the curve of blood glucose level for the test compound group/the area under the curve of blood glucose level for the control group)]×100
row,Structure (SMILES),Blood glucose lowering rate (%)
1,"C#Cc1ccc(-c2ccc(OC)c(C3C4=C(CC(C)(C)CC4=O)OC4=C3C(=O)CC(C)(C)C4)c2C)nc1C(=O)O [Example 12, 3-Ethynyl-6-[4-methoxy-2-methyl-3-(3,3,6,6-tetramethyl-1,8-dioxo-2,3,4,5,6,7,8,9-octahydro-1H-xanthen-9-yl)phenyl]pyridine-2-carboxylic acid]",31%
2,"CCc1ccc(-c2ccc(OC)c(C3C4=C(CC(C)(C)CC4=O)OC4=C3C(=O)CC(C)(C)C4)c2C)nc1C(=O)O [Example 13, 3-Ethyl-6-[4-methoxy-2-methyl-3-(3,3,6,6-tetramethyl-1,8-dioxo-2,3,4,5,6,7,8,9-octahydro-1H-xanthen-9-yl)phenyl]pyridine-2-carboxylic acid]",61%
3,"COc1ccc(-c2cccc(C(=O)NS(C)(=O)=O)n2)c(C)c1C1C2=C(CC(C)(C)CC2=O)OC2=C1C(=O)CC(C)(C)C2.[K] [Example 14, 6-[4-Methoxy-2-methyl-3-(3,3,6,6-tetramethyl-1,8-dioxo-2,3,4,5,6,7,8,9-octahydro-1H-xanthen-9-yl)phenyl]-N-(methylsulfonyl)pyridine-2-carboxamide potassium salt]",46%
4,"COc1ccc(-c2ccc(C)c(C(=O)NS(C)(=O)=O)n2)c(C)c1C1C2=C(CC(C)(C)CC2=O)OC2=C1C(=O)CC(C)(C)C2 [Example 16, 6-[4-Methoxy-2-methyl-3-(3,3,6,6-tetramethyl-1,8-dioxo-2,3,4,5,6,7,8,9-octahydro-1H-xanthen-9-yl)phenyl]-3-methyl-N-(methylsulfonyl)pyridine-2-carboxamide]",45%
5,"CCc1ccc(-c2ccc(OC)c(C3C4=C(CC(C)(C)CC4=O)OC4=C3C(=O)CC(C)(C)C4)c2C)nc1C(=O)NS(C)(=O)=O [Example 17, 3-Ethyl-6-[4-methoxy-2-methyl-3-(3,3,6,6-tetramethyl-1,8-dioxo-2,3,4,5,6,7,8,9-octahydro-1H-xanthen-9-yl)phenyl]-N-(methylsulfonyl)pyridine-2-carboxamide]",43%
6,"CC(C)(C)N.COc1ccc(-c2cccc(C(=O)NS(C)(=O)=O)n2)c(C)c1C1C2=C(CC(C)(C)CC2=O)OC2=C1C(=O)CC(C)(C)C2 [Example 18, 6-[4-methoxy-2-methyl-3-(3,3,6,6-tetramethyl-1,8-dioxo-2,3,4,5,6,7,8,9-octahydro-1H-xanthen-9-yl)phenyl]-N-(methylsulfonyl)pyridine-2-carboxamide 2-methylpropan-2-amine salt]",31%
7,"COc1ccc(-c2ccc(C)c(C(=O)NS(C)(=O)=O)n2)c(C)c1C1C2=C(CC(C)(C)CC2=O)OC2=C1C(=O)CC(C)(C)C2.[Na] [Example 19, 6-[4-Methoxy-2-methyl-3-(3,3,6,6-tetramethyl-1,8-dioxo-2,3,4,5,6,7,8,9-octahydro-1H-xanthen-9-yl)phenyl]-3-methyl-N-(methylsulfonyl)pyridine-2-carboxamide sodium salt]",40%
8,"COc1ccc(-c2cccc(C(=O)NS(C)(=O)=O)n2)c(C)c1C1C2=C(CC(C)(C)CC2=O)OC2=C1C(=O)CC(C)(C)C2.COc1ccc(-c2cccc(C(=O)NS(C)(=O)=O)n2)c(C)c1C1C2=C(CC(C)(C)CC2=O)OC2=C1C(=O)CC(C)(C)C2.[Ca] [Example 20, 6-[4-Methoxy-2-methyl-3-(3,3,6,6-tetramethyl-1,8-dioxo-2,3,4,5,6,7,8,9-octahydro-1H-xanthen-9-yl)phenyl]-N-(methylsulfonyl)pyridine-2-carboxamide hemi-calcium salt]",41%
9,"COc1ccc(-c2ccc(C)c(C(=O)NS(C)(=O)=O)n2)c(C)c1C1C2=C(CC(C)(C)CC2=O)OC2=C1C(=O)CC(C)(C)C2.COc1ccc(-c2ccc(C)c(C(=O)NS(C)(=O)=O)n2)c(C)c1C1C2=C(CC(C)(C)CC2=O)OC2=C1C(=O)CC(C)(C)C2.[Ca] [Example 21, 6-[4-Methoxy-2-methyl-3-(3,3,6,6-tetramethyl-1,8-dioxo-2,3,4,5,6,7,8,9-octahydro-1H-xanthen-9-yl)phenyl]-3-methyl-N-(methylsulfonyl)pyridine-2-carboxamide hemi-calcium salt]",54%
10,"COCCOc1ccc(-c2ccc(OC)c(C3C4=C(CC(C)(C)CC4=O)OC4=C3C(=O)CC(C)(C)C4)c2C)nc1C(=O)O [Example 29, 3-(2-Methoxyethoxy)-6-[4-methoxy-2-methyl-3-(3,3,6,6-tetramethyl-1,8-dioxo-2,3,4,5,6,7,8,9-octahydro-1H-xanthen-9-yl)phenyl]pyridine-2-carboxylic acid]",32%
11,"COc1ccc(-c2ccc(C)c(C(=O)O)n2)cc1C1C2=C(CC(C)(C)CC2=O)OC2=C1C(=O)CC(C)(C)C2 [Example 30, 6-[4-Methoxy-3-(3,3,6,6-tetramethyl-1,8-dioxo-2,3,4,5,6,7,8,9-octahydro-1H-xanthen-9-yl)phenyl]-3-methylpyridine-2-carboxylic acid]",55%

# Same assay, conditions: male C57BL/6J mice, fasted overnight; oral gavage 10 mg/kg; solvent PG:Tween; glucose 3 g/kg orally 30 minutes after compound; area under the curve of blood glucose level relative to control group
row,Structure (SMILES),Blood glucose lowering rate (%)
1,"COc1ccc(-c2cccc(C(=O)O)n2)cc1C1C2=C(CC(C)(C)CC2=O)OC2=C1C(=O)CC(C)(C)C2 [Example 1, 6-[4-Methoxy-3-(3,3,6,6-tetramethyl-1,8-dioxo-2,3,4,5,6,7,8,9-octahydro-1H-xanthen-9-yl)phenyl]pyridine-2-carboxylic acid]",39%
2,"COc1ccc(-c2cccc(C(=O)O)n2)c(C)c1C1C2=C(CC(C)(C)CC2=O)OC2=C1C(=O)CC(C)(C)C2 [Example 4, 6-[4-Methoxy-2-methyl-3-(3,3,6,6-tetramethyl-1,8-dioxo-2,3,4,5,6,7,8,9-octahydro-1H-xanthen-9-yl)phenyl]pyridine-2-carboxylic acid]",60%
3,"COc1ccc(-c2cccc(C(=O)NS(C)(=O)=O)n2)cc1C1C2=C(CC(C)(C)CC2=O)OC2=C1C(=O)CC(C)(C)C2 [Example 5, 6-[4-Methoxy-3-(3,3,6,6-tetramethyl-1,8-dioxo-2,3,4,5,6,7,8,9-octahydro-1H-xanthen-9-yl)phenyl]-N-(methylsulfonyl)pyridine-2-carboxamide]",43%
4,"COc1ccc(-c2cccc(-c3noc(=O)[nH]3)n2)cc1C1C2=C(CC(C)(C)CC2=O)OC2=C1C(=O)CC(C)(C)C2 [Example 8, 9-{2-Methoxy-5-[6-(5-oxo-4,5-dihydro-1,2,4-oxadiazol-3-yl)pyridin-2-yl]phenyl}-3,3,6,6-tetramethyl-3,4,5,6,7,9-hexahydro-1H-xanthene-1,8(2H)-dione]",38%
5,"COc1ccc(-c2cccc(C(=O)NS(C)(=O)=O)n2)c(C)c1C1C2=C(CC(C)(C)CC2=O)OC2=C1C(=O)CC(C)(C)C2 [Example 9, 6-[4-Methoxy-2-methyl-3-(3,3,6,6-tetramethyl-1,8-dioxo-2,3,4,5,6,7,8,9-octahydro-1H-xanthen-9-yl)phenyl]-N-(methylsulfonyl)pyridine-2-carboxamide]",42%
6,"COc1ccc(-c2ccc(C)c(C(=O)O)n2)c(C)c1C1C2=C(CC(C)(C)CC2=O)OC2=C1C(=O)CC(C)(C)C2 [Example 10, 6-[4-Methoxy-2-methyl-3-(3,3,6,6-tetramethyl-1,8-dioxo-2,3,4,5,6,7,8,9-octahydro-1H-xanthen-9-yl)phenyl]-3-methylpyridine-2-carboxylic acid]",55%
7,"COc1ccc(-c2ccc(O)c(C(=O)O)n2)c(C)c1C1C2=C(CC(C)(C)CC2=O)OC2=C1C(=O)CC(C)(C)C2 [Example 11, 3-Hydroxy-6-[4-methoxy-2-methyl-3-(3,3,6,6-tetramethyl-1,8-dioxo-2,3,4,5,6,7,8,9-octahydro-1H-xanthen-9-yl)phenyl]pyridine-2-carboxylic acid]",42%
8,"COc1ccc(-c2ccc(OC)c(C3C4=C(CC(C)(C)CC4=O)OC4=C3C(=O)CC(C)(C)C4)c2C)nc1C(=O)O [Example 23, 3-Methoxy-6-[4-methoxy-2-methyl-3-(3,3,6,6-tetramethyl-1,8-dioxo-2,3,4,5,6,7,8,9-octahydro-1H-xanthen-9-yl)phenyl]pyridine-2-carboxylic acid]",46%
9,"CCOc1ccc(-c2ccc(OC)c(C3C4=C(CC(C)(C)CC4=O)OC4=C3C(=O)CC(C)(C)C4)c2C)nc1C(=O)O [Example 28, 3-Ethoxy-6-[4-methoxy-2-methyl-3-(3,3,6,6-tetramethyl-1,8-dioxo-2,3,4,5,6,7,8,9-octahydro-1H-xanthen-9-yl)phenyl]pyridine-2-carboxylic acid]",60%
